≈ marks a conversion by molar mass, not a printed value. Where two headings read alike, the source gives them in different places.
Tests used:
S. pyogenes A 65 = assay: microbe, parasite or virus in culture; format: cell-based
P. aeruginosa 12 = assay: microbe, parasite or virus in culture; format: cell-based
S. aureus No. 50774 = assay: microbe, parasite or virus in culture; format: cell-based
M. bovis P-7101 = assay: microbe, parasite or virus in culture; format: cell-based; conditions: Mycobacterium tuberculosis variant bovis, P7101, 20 h; read-out: minimum inhibitory concentrations (MIC)
E. coli P-51213 = assay: microbe, parasite or virus in culture; format: cell-based
S. pyogenes Cook = assay: microbe, parasite or virus in culture; format: cell-based
S. aureus No. 80 = assay: microbe, parasite or virus in culture; format: cell-based
S. aureus 209P JC-1 = assay: microbe, parasite or virus in culture; format: cell-based; conditions: Staphylococcus aureus, 20 h, read-out: minimum inhibitory concentrations (MIC)
Flavobacterium sp P-7201 = assay: microbe, parasite or virus in culture; format: cell-based; conditions: P7201, 20 h, read-out: minimum inhibitory concentrations (MIC)
M. lacunata P-7102 = assay: microbe, parasite or virus in culture; format: cell-based
in vivo [1] = conditions: mouse, po
B. abortus kusayanagi = assay: microbe, parasite or virus in culture; format: cell-based; conditions: Brucella abortus, 20 h; read-out: minimum inhibitory concentrations (MIC)
male mice (ddY) = assay: Acute oral toxicity in mice (Table 3); conditions: mouse, in vivo
[2] = test system: Gram-positive and Gram-negative bacteria; assay: In vitro antibacterial activity, overall; format: cell-based
Method: The numbers in the table show minimum inhibitory concentrations (MIC) (μg/ml), calculated for free base. The minimum inhibitory concentration was determined by the twofold agar-dilution method, which was recommended by Japan Society of Chemotherapy (Chemotherapy, 29(1), (1981)), using Muller-Hinton agar. One loopful of an overnight culture of test organisms in Mueller-Hinton broth was inoculated onto 10-ml drug-containing agar layers in petri dishes. Bacterial inocula contained approximately 10^6 colonyl-forming units. Bacterial growth was observed after 20-hour incubation at 37° C. The MIC was defined as the lowest drug concentration which prevented visible bacterial growth.

[3] = test system: Staphylococcus aureus 50774; assay: animal or person; format: in vivo; conditions: for ED50: Staphylococcus aureus, 50774, in Mus musculus, po, 336 h, read-out: median effective dose (ED50)
[4] = test system: Pseudomonas aeruginosa 12; assay: animal or person; format: in vivo; conditions: for ED50: Pseudomonas aeruginosa, 12, in Mus musculus, po, 168 h, 7 days, read-out: median effective dose (ED50); for efficacy against systemic infection by P. aeruginosa 12 compared with Compound A (in words): in vivo
[5] = test system: Gram-positive and Gram-negative bacteria; assay: In vivo efficacy against systemic infections, overall; conditions: for therapeutic effect on infections by Gram-positive and Gram-negative bacteria (in words): in vivo; for therapeutic effect compared with Compounds A and B (in words): versus Compounds A and B, systemic infections, mice
Method: Compounds were each dissolved in deionized water. Each of the solutions was orally administered to mice infected with each of the test organisms under the conditions shown hereinbelow, and the median effective dose (ED 50) was calculated by […]. The numerals in the table show ED50 (mg/kg) value, calculated for free base.
Mice: Male mice (ddY-S) weighing about 20 g Infection:
Twice, immediately and 6 hours after infection.
For 14 days in case of Staphylococcus aureus 50774.
For 7 days in case of other organisms.

in vivo [6] = assay: in vivo; set-up: species or system mice; conditions: mouse; for dose excreted at 24 h: 5 mg/kg
[7] = test system: Streptococcus pyogenes A65; assay: animal or person; format: in vivo; conditions: A65, in Mus musculus, po, 168 h, 7 days, read-out: median effective dose (ED50)
[8] = Streptococcus pyogenes, A65, 20 h; read-out: minimum inhibitory concentrations (MIC)
[9] = Pseudomonas aeruginosa, 12, 20 h; read-out: minimum inhibitory concentrations (MIC)
[10] = Staphylococcus aureus, NO.50774, 20 h; read-out: minimum inhibitory concentrations (MIC)
[11] = Escherichia coli, P51213, 20 h; read-out: minimum inhibitory concentrations (MIC)
[12] = Streptococcus pyogenes, 20 h; read-out: minimum inhibitory concentrations (MIC)
[13] = Staphylococcus aureus, NO.80, 20 h; read-out: minimum inhibitory concentrations (MIC)
[14] = 20 h; read-out: minimum inhibitory concentrations (MIC)

Structure (SMILES)	MIC (S. pyogenes A 65; [8]) [µg/mL]	MIC (P. aeruginosa 12; [9]) [µg/mL]	MIC (S. aureus No. 50774; [10]) [µg/mL]	MIC (M. bovis P-7101) [µg/mL]	MIC (E. coli P-51213; [11]) [µg/mL]	MIC (S. pyogenes Cook; [12]) [µg/mL]	MIC (S. aureus No. 80; [13]) [µg/mL]	MIC (S. aureus 209P JC-1) [µg/mL]	MIC (Flavobacterium sp P-7201) [µg/mL]	MIC (M. lacunata P-7102; [14]) [µg/mL]	LD50 at 168 h (in vivo [1]) [mg/kg]	MIC (B. abortus kusayanagi) [µg/mL]	toxicity (in words) (male mice (ddY))	antibacterial activity against Gram-positive and Gram-negative bacteria (in words) [2]	ED50 [4] [mg/kg]	ED50 [7] [mg/kg]	also measured
C[C@H]1CN(c2c(F)c(F)c3c(=O)c(C(=O)O)cn(C4CC4)c3c2F)C[C@H]1N (relative stereo) [Compound 2, 1-cyclopropyl-5,6,8-trifluoro-7-(cis3-amino-4-methyl-1-pyrrolidinyl)-1,4-dihydro-4-oxoquinoline-3-carboxylic acid]	0.39 (≈ 1.02 µM)	0.39 (≈ 1.02 µM)	0.05 (≈ 0.131 µM)	0.39 (≈ 1.02 µM)	0.05 (≈ 0.131 µM)	0.2 (≈ 0.524 µM)	0.05 (≈ 0.131 µM)	0.05 (≈ 0.131 µM)	0.2 (≈ 0.524 µM)	0.78 (≈ 2.05 µM)	> 2000	0.78 (≈ 2.05 µM)	low oral toxicity	very high antibacterial activities			
CCC1(N)CCN(c2c(F)c(N)c3c(=O)c(C(=O)O)cn(C4CC4)c3c2F)C1 (stereo not shown) [Compound 4, 5-amino-7-(3-amino-3-ethyl-1-pyrrolidinyl)-1-cyclopropyl-6,8-difluoro-1,4-dihydro-4-oxoquinoline-3-carboxylic acid]	0.2 (≈ 0.51 µM)	0.2 (≈ 0.51 µM)	0.025 (≈ 0.0637 µM)	0.2 (≈ 0.51 µM)	0.05 (≈ 0.127 µM)	0.1 (≈ 0.255 µM)	0.0063 (≈ 0.0161 µM)	0.025 (≈ 0.0637 µM)	0.05 (≈ 0.127 µM)	0.78 (≈ 1.99 µM)	> 2000	0.39 (≈ 0.994 µM)	low oral toxicity	very high antibacterial activities			
Cl.O=C(O)c1cn(C2CC2)c2cc(N3CCNCC3)c(F)cc2c1=O [Compound B, 1-cyclopropyl-6-fluoro-7-(1-piperazinyl)-1,4-dihydro-4-oxoquinoline-3carboxylic acid hydrochloride, reference compound]								0.1	0.39								MIC (S. pyogenes A 65; Streptococcus pyogenes, A65, 20 h, read-out: minimum inhibitory concentrations (MIC)): 0.2 µg/mL; ED50 [3]: 11.7 mg/kg; MIC (P. aeruginosa 12; Pseudomonas aeruginosa, 12, 20 h, read-out: minimum inhibitory concentrations (MIC)): 0.1 µg/mL; MIC (S. aureus No. 50774; Staphylococcus aureus, NO.50774, 20 h, read-out: minimum inhibitory concentrations (MIC)): 0.1 µg/mL; MIC (E. coli P-51213; Escherichia coli, P51213, 20 h, read-out: minimum inhibitory concentrations (MIC)): 0.05 µg/mL; MIC (S. pyogenes Cook; Streptococcus pyogenes, 20 h, read-out: minimum inhibitory concentrations (MIC)): 0.2 µg/mL; MIC (S. aureus No. 80; Staphylococcus aureus, NO.80, 20 h, read-out: minimum inhibitory concentrations (MIC)): 0.39 µg/mL; MIC (M. lacunata P-7102; 20 h, read-out: minimum inhibitory concentrations (MIC)): 6.25 µg/mL
CC1CN(c2c(F)c(F)c3c(=O)c(C(=O)O)cn(C4CC4)c3c2F)CCN1 (stereo not shown) [Compound 1, 1-cyclopropyl-5,6,8-trifluoro-7-(3-methyl-1-piperazinyl)-1,4-dihydro-4-oxoquinoline-3-carboxylic acid]	1.56 (≈ 4.09 µM)	0.78 (≈ 2.05 µM)	0.2 (≈ 0.524 µM)	1.56 (≈ 4.09 µM)	0.1 (≈ 0.262 µM)	1.56 (≈ 4.09 µM)	0.2 (≈ 0.524 µM)	0.2 (≈ 0.524 µM)	0.39 (≈ 1.02 µM)	6.25 (≈ 16.4 µM)	> 2000	3.13 (≈ 8.21 µM)	low oral toxicity	very high antibacterial activities	2.46	17.3	ED50 ([3]; 14 days): 2.4 mg/kg; efficacy against systemic infection by S. aureus 50774 compared with Compound B (in words) ([3]; in vivo): better efficacy; efficacy against systemic infection by P. aeruginosa 12 compared with Compound A (in words) [4]: better efficacy; therapeutic effect on infections by Gram-positive and Gram-negative bacteria (in words) [5]: potent therapeutic effects; therapeutic effect compared with Compounds A and B (in words) [5]: better therapeutic effects; dose excreted at 24 h (in vivo [6]; feces, iv, read-out: Feces recovery): 14%; dose excreted at 24 h (in vivo [6]; feces, po, read-out: Feces recovery): 22.3%; absorbability (in words) (in vivo [6]; in vivo): very good oral absorbability; metabolic stability (in words) (in vivo [6]; in vivo): good metabolic stability; total recovery (in words) (in vivo [6]; in vivo): High total recovery; urinary excretion (in words) (in vivo [6]; in vivo): very good; metabolic stability and oral absorbability compared with Compound B (in words) (in vivo [6]; in vivo, po): superior to Compound B in metabolic stability and oral absorbability; dose excreted at 24 h (in vivo [6]; urine and feces, iv, read-out: Total recovery): 77.6%; dose excreted at 24 h (in vivo [6]; urine and feces, po, read-out: Total recovery): 85.7%; dose excreted at 24 h (in vivo [6]; urine, iv, read-out: Urine recovery): 63.6%; dose excreted at 24 h (in vivo [6]; urine, po, read-out: Urine recovery): 63.4%
C[C@@H]1CN(c2c(F)c(N)c3c(=O)c(C(=O)O)cn(C4CC4)c3c2F)C[C@H]1N (relative stereo) [Compound 5, 5-amino-7-(trans-3-amino-4-methyl-1-pyrrolidinyl)-1-cyclopropyl-6,8-difluoro-1,4-dihydro-4-oxoquinoline-3-carboxylic acid]	0.1 (≈ 0.264 µM)	0.1 (≈ 0.264 µM)	0.0125 (≈ 0.033 µM)	0.1 (≈ 0.264 µM)	0.025 (≈ 0.0661 µM)	0.1 (≈ 0.264 µM)	0.0125 (≈ 0.033 µM)	0.025 (≈ 0.0661 µM)	0.05 (≈ 0.132 µM)	0.39 (≈ 1.03 µM)	> 2000	0.2 (≈ 0.529 µM)	low oral toxicity	very high antibacterial activities			
C[C@H]1CN(c2c(F)c(N)c3c(=O)c(C(=O)O)cn(C4CC4)c3c2F)C[C@H]1CN.Cl (relative stereo) [Compound 6, 5-amino-7-(cis-3-aminomethyl-4-methyl-1-pyrrolidinyl)-1-cyclopropyl-6,8-difluoro-1,4-dihydro-4-oxoquinoline-3-carboxylic acid hydrochloride]	0.0125	0.1	0.0031	0.2	0.0125	0.0063	0.0031	< 0.0031	0.025	0.2		0.39					
CCn1cc(C(=O)O)c(=O)c2c(N)c(F)c(N3CCNCC3)c(F)c21 [Compound A, 5-amino-1-ethyl-6,8-difluoro-7-(1piperazinyl)-1,4-dihydro-4-oxoquinoline-3-carboxylic acid, reference compound]	12.5 (≈ 35.5 µM)	0.78 (≈ 2.21 µM)	0.2 (≈ 0.568 µM)	3.13 (≈ 8.88 µM)	0.39 (≈ 1.11 µM)	6.25 (≈ 17.7 µM)	0.2 (≈ 0.568 µM)	0.2 (≈ 0.568 µM)	0.78 (≈ 2.21 µM)	6.25 (≈ 17.7 µM)		3.13 (≈ 8.88 µM)			15	> 25	
CC1(N)CCN(c2c(F)c(N)c3c(=O)c(C(=O)O)cn(C4CC4)c3c2F)C1 (stereo not shown) [Compound 3, 5-amino-7-(3-amino-3-methyl-1-pyrrolidinyl)-1-cyclopropyl-6,8-difluoro-1,4-dihydro-4-oxoquinoline-3-carboxylic acid]	0.1 (≈ 0.264 µM)	0.2 (≈ 0.529 µM)	0.025 (≈ 0.0661 µM)	0.2 (≈ 0.529 µM)	0.05 (≈ 0.132 µM)	0.1 (≈ 0.264 µM)	0.0063 (≈ 0.0166 µM)	0.025 (≈ 0.0661 µM)	0.1 (≈ 0.264 µM)	0.78 (≈ 2.06 µM)	> 2000	0.39 (≈ 1.03 µM)	low oral toxicity	very high antibacterial activities	1.68	9.14	efficacy against systemic infection by P. aeruginosa 12 compared with Compound A (in words) [4]: better efficacy; therapeutic effect on infections by Gram-positive and Gram-negative bacteria (in words) [5]: potent therapeutic effects; therapeutic effect compared with Compounds A and B (in words) [5]: better therapeutic effects
